Values of other authors, collected in US12171169B2, “Pest repelling drip irrigation pipe” (RIVULIS PLASTRO LTD., priority 2017, dated 2024).

Key:
[1] = tested on: pests; conditions: 1R-cis versus 1S-cis enantiomer
[2] = tested on: humans; conditions: 1S-cis versus 1R-cis enantiomer

SMILES | effectiveness as a pesticide relative to 1S-cis-bifenthrin [1] | toxicity to humans relative to 1R-cis-bifenthrin [2]
Cc1c(COC(=O)[C@@H]2[C@H](/C=C(\Cl)C(F)(F)F)C2(C)C)cccc1-c1ccccc1 [1R-cis-bifenthrin, (2-methyl-[1,1′-biphenyl]-3-yl)methyl (1R,3R)-3-((Z)-2-chloro-3,3,3-trifluoroprop-1-en-1-yl)-2,2-dimethylcyclopropane-1-carboxylate] | more than 300 times | –
Cc1c(COC(=O)[C@H]2[C@@H](/C=C(\Cl)C(F)(F)F)C2(C)C)cccc1-c1ccccc1 [1S-cis-Bifenthrin, (2-methyl-[1,1′-biphenyl]-3-yl)methyl (1S,3S)-3-((Z)-2-chloro-3,3,3-trifluoroprop-1-en-1-yl)-2,2-dimethylcyclopropane-1-carboxylate] | – | 3-4 times
